Data taken from PMC13635228 (Nature Communications, 2026).

Columns and labels:
human C3aR = experiment: Transducer-coupling assays taken together; assay type: cell-based
mouse C3aR = experiment: Transducer-coupling assays taken together; assay type: cell-based
C3aR = conditions: cited from earlier work

NC(N)=NCCC[C@H](NC(=O)COCC(c1ccccc1)c1ccccc1)C(=O)O [SB290157, reference compound]
agonist profile, G-protein activation (human C3aR; compared to C3a): partial agonist profile | βarr recruitment response (human C3aR; compared to C3a): weak response in βarr recruitment | activation of mouse C3aR (mouse C3aR; G protein activation or β-arrestin recruitment): did not activate mouse C3aR | agonistic activity (C3aR; various cellular assays, ref [45]-[47]): agonistic activity

C3a^-d-Arg: C3a with terminal arginine removed by carboxypeptidases; species not stated
activity at human and mouse C3aR (C3aR; ref [25],[30],[67]): very weak activity

hC3a: full-length recombinant human complement anaphylatoxin C3a, natural agonist of C3aR, expressed in E. coli
efficacy (human C3aR): full agonists | potency, human vs. mouse C3a (human C3aR): more potent | potency and efficacy, human vs. mouse C3a (mouse C3aR; mouse C3aR): equally potent and efficacious

mC3a-d-Arg: mouse C3a with terminal arginine removed
activity (mouse C3aR; mouse C3aR): weak but measurable activity

mC3a: full-length recombinant mouse complement anaphylatoxin C3a (S1-R78), expressed in E. coli
efficacy (human C3aR): full agonists | potency and efficacy, human vs. mouse C3a (mouse C3aR; mouse C3aR): equally potent and efficacious
